Measurements as given in PubChem BioAssay (NCI).
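These data come from cells grown in 96-well plates and exposed to compound for 48 hours at five concentrations. TGI: concentration producing complete growth inhibition.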 *1 amine or outer side, *2 acyl side, *3 side chain or, on linkers, in order; H or OH if unused. Where a SMILES comes first, the peptide text is derived from it. The star is where a group is joined. γGlu = O=C(O)[CH](CCC(=O)[*:2])N[*:1]; Cbz = O=C(OCc1ccccc1)*; NHOH = ON*

Assays:
Assay in all cases: NCI tumour cell line growth inhibition, 48 h
CCRF-CEM leukemia = system: CCRF-CEM leukemia
LOX IMVI melanoma = system: LOX IMVI melanoma
ACHN renal = system: ACHN renal
SK-MEL-5 melanoma = system: SK-MEL-5 melanoma
SR leukemia = system: SR leukemia
A549 NSCLC = system: A549 NSCLC
NCI-H23 lung = system: NCI-H23 lung
MDA-MB-231 breast = system: MDA-MB-231 breast
EKVX NSCLC = system: EKVX NSCLC
NCI/ADR-RES ovarian = system: NCI/ADR-RES ovarian

Structure (SMILES)	TGI (CCRF-CEM leukemia) [µM]	TGI (LOX IMVI melanoma) [µM]	TGI (ACHN renal) [µM]	TGI (SK-MEL-5 melanoma) [µM]	TGI (SR leukemia) [µM]	TGI (A549 NSCLC) [µM]	TGI (NCI-H23 lung) [µM]	TGI (MDA-MB-231 breast) [µM]	TGI (EKVX NSCLC) [µM]	TGI (NCI/ADR-RES ovarian) [µM]
CCOC(=O)CCC(NC(=O)C(CC(=O)OC)NC(=O)OCc1ccccc1)C(=O)NC(CC(=O)OC)C(=O)NC(CCC(=O)OCC)C(=O)NC(CC(=O)OC)C(=O)NC(CCC(=O)OCC)C(=O)NC(CC(=O)OCC)C(=O)OCC (configuration not stated) (Cbz-D(OMe)E(OEt)D(OMe)E(OEt)D(OMe)E(OEt)D(OEt)-OEt; configuration not given here)	> 100	> 100	> 100	> 100	> 100	> 100	> 100	> 100		
Cc1c2ccccc2c(/C=N/NC(=O)CSCC(=O)N/N=C/c2c3ccccc3c(C)c3ccccc23)c2ccccc12	> 72.4	> 100	> 89	> 100		> 100	50.7	> 75	> 100	> 100
Cc1cccc(C)c1NC(=S)N/C=C(\C#N)C(N)=O	> 100	> 100	> 100	> 100		> 100	> 100	> 100	> 100	> 100
O=S(=O)(O)c1cc(O)c(N=NC2S(=O)(=O)OCCOS2(=O)=O)c2ccccc12	> 100	> 100	> 100	> 100		> 100	> 100	> 100	> 100	> 100
CC(Nc1cccc(Cl)c1)c1ccncc1 (configuration not stated)	> 100	> 100	> 100	> 100		> 100	> 100	> 100	> 100	> 100
OC1C2CN3CCN(C2)CC1(c1ccccc1)C3 (configuration not stated)		> 100	> 100	> 100	> 100		> 100	> 100	> 100	> 100
CCOC(=O)c1nc(SC)sc1NC(=O)c1ccc(OC)cc1	> 100	> 100	> 100	> 100		> 100	> 100	> 100	> 100	> 100
NC(CCC(=O)NC(CCC(=O)NO)C(=O)NCC(=O)O)C(=O)O (configuration not stated) (γGlu-Glu(NHOH)-Gly-OH; configuration not given here)	> 100	> 100	> 100	> 100		> 100	> 100	> 100	> 100	> 100
COC(=O)[C@H](Cc1ccccc1)NC(=O)N(CCN(CCC#N)C(=O)N[C@H](C(=O)OC)C(C)C)c1ccccc1	> 100	> 100	> 100	> 100		> 100	> 100	> 100	> 100	> 100
CN(C(=O)Cc1cc(Cl)c(Cl)cc1NC(=O)CCCN)[C@H]1CCCC[C@@H]1N1CCCC1		39.3	> 100	29.9	> 100	83.1	> 100	77.4	> 100	> 100
CCOC(=O)CCCN	> 100	> 100	> 100	> 100		> 100	> 100	> 100	> 100	> 100
COc1nc2ncc([C@@H](OC(C)=O)[C@@H](COC(C)=O)OC(C)=O)nc2c(=O)n1C	> 100	> 100	> 100	> 100	> 100	> 100		> 100	> 100	> 100
C[C@]12C(=O)OC[C@H](c3ccccc3)N1C(=O)N(Cc1ccccc1)[C@@H]2CO	> 100	> 100	> 100	> 100	> 100	> 100		> 100	> 100	> 100
CCO/C(O)=c1/s/c(=C2/SC(=S)N(c3ccc(C)cc3)C2=O)n(-c2ccccc2)c1=N	> 100		> 100	> 100	> 100	> 100	> 100	59	> 100	> 100
CCCCOc1ccc(/C=C/C2=[N+](CCO)CCO2)cc1	67.1		> 100	> 100	62.7	> 100	> 100	> 100	> 100	> 100
C/C(=N/NC(=S)N1CCCCCC1)c1cccc(/C(C)=N\NC(=S)N2CCCCCC2)n1		3.41	2.87	2.72	5.84	4.86	5.44	3.41	7.98	3.86
